Laboratory results taken from the supplement of paper PMC13380429.
Counter-ions that a name gives are not always drawn.

Legend:
Conditions in all cases: 72 h
[1] = test system: Calu-3; test: drug sensitivity score (DSS) for viability; higher = more toxic; extreme values may be limits of the assay
[2] = test system: Vero E6; test: as above
[3] = test system: U2OS; test: as above
[4] = test system: HepG2; test: as above
[5] = test system: Caco-2; test: as above
[6] = test system: Calu-3; test: cell viability relative to DMSO; higher = less toxic
[7] = test system: Vero E6; test: as above
[8] = test system: U2OS; test: as above
[9] = test system: HepG2; test: as above
[10] = test system: Caco-2; test: as above
[11] = test system: Calu-3; test: relative viability EC50 (midpoint between 100% and the lowest measured viability); higher = less toxic
[12] = test system: Vero E6; test: as above
[13] = test system: U2OS; test: as above
[14] = test system: HepG2; test: as above
[15] = test system: Caco-2; test: as above

| Compound | drug sensitivity score [1] | drug sensitivity score [2] | drug sensitivity score [3] | drug sensitivity score [4] | drug sensitivity score [5] | cell viability ([6]; 1 nM) [%] | cell viability ([6]; 10 nM) [%] | cell viability ([6]; 100 nM) [%] | cell viability ([6]; 1000 nM) [%] | cell viability ([6]; 10000 nM) [%] | cell viability ([7]; 1 nM) [%] | cell viability ([7]; 10 nM) [%] | cell viability ([7]; 100 nM) [%] | cell viability ([7]; 1000 nM) [%] | cell viability ([7]; 10000 nM) [%] | cell viability ([8]; 1 nM) [%] | cell viability ([8]; 10 nM) [%] | cell viability ([8]; 100 nM) [%] | cell viability ([8]; 1000 nM) [%] | cell viability ([8]; 10000 nM) [%] | cell viability ([9]; 1 nM) [%] | cell viability ([9]; 10 nM) [%] | cell viability ([9]; 100 nM) [%] | cell viability ([9]; 1000 nM) [%] | cell viability ([9]; 10000 nM) [%] | cell viability ([10]; 1 nM) [%] | cell viability ([10]; 10 nM) [%] | cell viability ([10]; 100 nM) [%] | cell viability ([10]; 1000 nM) [%] | cell viability ([10]; 10000 nM) [%] | relative viability EC50 [11] [µM] | relative viability EC50 [12] [µM] | relative viability EC50 [13] [µM] | relative viability EC50 [14] [µM] | relative viability EC50 [15] [µM] |
| --- | --- | --- | --- | --- | --- | --- | --- | --- | --- | --- | --- | --- | --- | --- | --- | --- | --- | --- | --- | --- | --- | --- | --- | --- | --- | --- | --- | --- | --- | --- | --- | --- | --- | --- | --- |
| CN(C)CCc1c[nH]c2ccc(C[C@H]3COC(=O)N3)cc12 [zolmitriptan] | 0 | 0 | 0 | 0 | 0 | 92.2 | 94.2 | 95.2 | 93.2 | 97 | 108 | 98.3 | 106 | 106 | 104 | 99 | 99.7 | 96.8 | 103 | 96.9 | 112 | 111 | 99 | 87.6 | 111 | 96.9 | 102 | 96.8 | 110 | 97.8 | > 10 | > 10 | > 10 | > 10 | > 10 |
| C=CC[N+]1([C@H]2C[C@H]3[C@@H]4CC[C@H]5C[C@H](O)[C@@H](N6CCOCC6)C[C@]5(C)[C@H]4CC[C@]3(C)[C@H]2OC(C)=O)CCCC1 [ROCURONIUM BROMIDE] | 0 | 0 | 0 | 0 | 0.2 | 98.1 | 105 | 107 | 94.9 | 105 | 91 | 95.1 | 89.5 | 88.5 | 95.6 | 106 | 99.3 | 103 | 103 | 108 | 97.7 | 113 | 108 | 111 | 108 | 104 | 103 | 107 | 132 | 79.8 | > 10 | > 10 | > 10 | > 10 | > 10 |
| CCCCCCCCCCCC1=C(O)C(=O)C=C(O)C1=O [embelin] | 0 | 0 | 0 | 0 | 0 | 106 | 98.6 | 110 | 96.2 | 104 | 92.1 | 94.3 | 97.8 | 105 | 97 | 107 | 95.1 | 101 | 94.7 | 95.3 | 95.9 | 94.4 | 98.9 | 98.6 | 102 | 98.2 | 97.2 | 98.5 | 104 | 92.2 | > 10 | > 10 | > 10 | > 10 | > 10 |
| CC1(C)CNc2cc(NC(=O)c3cccnc3NCc3ccncc3)ccc21 [motesanib] | 0 | 0 | 0 | 0.1 | 0 | 111 | 99.6 | 110 | 110 | 108 | 97.3 | 102 | 94.9 | 94 | 96.9 | 103 | 96.7 | 97.9 | 98.9 | 96.8 | 95.9 | 94 | 97.4 | 93.5 | 84.9 | 94.6 | 95.5 | 96.8 | 92.1 | 93.2 | > 10 | > 10 | > 10 | > 10 | > 10 |
| CC(C)(C)c1cc(O)c(C(C)(C)C)cc1O [BHQ] | 0 | 0 | 0 | 0 | 0.1 | 109 | 94 | 93.1 | 97.9 | 108 | 98.3 | 96 | 103 | 96.6 | 91.8 | 101 | 97.2 | 103 | 99.1 | 99.8 | 102 | 95.8 | 92.4 | 97.9 | 95.5 | 101 | 96.9 | 102 | 95.7 | 88.9 | > 10 | > 10 | > 10 | > 10 | > 10 |
| CN[C@@H]1[C@H](O[C@H]2[C@H](O[C@H]3[C@H](O)[C@@H](O)[C@H](N=C(N)N)[C@@H](O)[C@@H]3N=C(N)N)O[C@@H](C)[C@]2(O)C=O)O[C@@H](CO)[C@H](O)[C@H]1O [STREPTOMYCIN SULFATE [5mM; 10% aq DMSO + 5mM ethanolamine]] | 0 | 0 | 0 | 0 | 0 | 87.6 | 102 | 86.6 | 91.9 | 91.7 | 97.8 | 98.5 | 99.9 | 95.2 | 98.3 | 98.7 | 100 | 94.5 | 99.5 | 95.7 | 101 | 105 | 102 | 101 | 98.2 | 95 | 106 | 88.5 | 95.7 | 98.1 | > 10 | > 10 | > 10 | > 10 | > 10 |
| Oc1ncnc2[nH]ncc12 [allopurinol] | 0 | 0 | 0 | 0 | 0 | 100 | 98 | 90.4 | 98 | 94.1 | 107 | 104 | 92 | 101 | 93.9 | 100 | 103 | 102 | 99.2 | 101 | 113 | 99.6 | 99.5 | 103 | 91.7 | 91.5 | 97 | 104 | 89.6 | 100 | > 10 | > 10 | > 10 | > 10 | > 10 |
| N[C@@H](Cn1ccc(=O)n(Cc2ccccc2C(=O)O)c1=O)C(=O)O [UBP-302] | 0 | 0 | 0 | 0 | 0 | 105 | 94.8 | 107 | 115 | 107 | 101 | 98.6 | 103 | 101 | 102 | 99 | 95.5 | 97.6 | 92.7 | 98.7 | 103 | 101 | 97.9 | 101 | 104 | 91.6 | 93 | 91.2 | 89.6 | 98.1 | > 10 | > 10 | > 10 | > 10 | > 10 |
| O=[N+]([O-])O[C@H]1CO[C@H]2[C@@H]1OC[C@H]2O[N+](=O)[O-] [isosorbide-dinitrate] | 0 | 0 | 0 | 0 | 0 | 99.4 | 101 | 101 | 101 | 107 | 94.2 | 102 | 92.5 | 97.1 | 108 | 100 | 96.1 | 100 | 99.8 | 99 | 90.6 | 117 | 102 | 113 | 101 | 99.1 | 95 | 102 | 90.5 | 98.7 | > 10 | > 10 | > 10 | > 10 | > 10 |
| CCOC(=O)c1cnc2c(cnn2CC)c1NN=C(C)C [etazolate] | 0 | 0.3 | 0 | 0 | 0 | 102 | 101 | 96.2 | 94.3 | 90.9 | 96.9 | 93.5 | 96.5 | 98.9 | 85.1 | 101 | 94.7 | 97.1 | 96.6 | 97.7 | 94.4 | 93 | 96.6 | 106 | 88.4 | 100 | 96.7 | 102 | 99.6 | 92.9 | > 10 | > 10 | > 10 | > 10 | > 10 |
| COc1ccc(C2C(=O)c3ccccc3C2=O)cc1 [anisindione] | 0 | 0 | 0 | 0 | 0 | 112 | 106 | 108 | 95.7 | 108 | 95.1 | 92.1 | 94.7 | 89.5 | 105 | 101 | 97.8 | 102 | 106 | 105 | 107 | 111 | 105 | 108 | 94.7 | 101 | 93.8 | 100 | 98.3 | 95.3 | > 10 | > 10 | > 10 | > 10 | > 10 |
| O=C(Nc1ccc(Cl)cc1)Nc1ccc(Cl)c(Cl)c1 [triclocarban] | 0 | 0 | 0 | 0 | 0 | 97.2 | 93.3 | 97.3 | 88.8 | 100 | 101 | 89.4 | 103 | 86.8 | 95.4 | 92.6 | 96.5 | 94.2 | 102 | 97.2 | 90 | 88.1 | 99.6 | 98.1 | 97.1 | 82.8 | 59.4 | 94.2 | 104 | 87.9 | > 10 | > 10 | > 10 | > 10 | > 10 |
| C[C@H](CCC(=O)O)[C@H]1CC[C@H]2[C@@H]3C[C@H](O)[C@@H]4C[C@H](O)CC[C@]4(C)[C@H]3CC[C@]12C [Hyodeoxycholic acid (HDCA)] | 0 | 0 | 0 | 0 | 0 | 108 | 103 | 87.8 | 107 | 101 | 92.3 | 95.4 | 95.2 | 94.3 | 108 | 95.8 | 103 | 105 | 104 | 104 | 95.6 | 102 | 104 | 93.9 | 106 | 88.5 | 100 | 99.3 | 101 | 106 | > 10 | > 10 | > 10 | > 10 | > 10 |
